Assay results taken from article PMC11434868, “Synthesis and Antiproliferative Effect of 3,4,5-Trimethoxylated Chalcones on Colorectal and Prostatic Cancer Cells” (Pharmaceuticals, 2024).

Tests used:
[1] = tested on: HCT116; test: Trypan blue dye exclusion method on HCT116; assay type: cell-based, human
Procedure: (§1) Human CRC (HCT116 and HT-29) and PCa (DU145 and PC3) cell lines were purchased from the American Type Culture Collection (ATCC—LGC Standards, Molsheim, France). All cells were grown in RPMI 1640 medium supplemented with 10% FBS, 1% L-glutamine, 100 U/mL penicillin, and 100 μg/mL streptomycin. Cultures were maintained in a humidified atmosphere containing 5% CO2 at 37 °C. Cells were seeded in 75 cm^2 culture flasks at 1.2 × 10^4 cells/cm^2 for HCT116, DU145, and PC3 cells, and 2.0 × 10^4 for HT-29 cells. Cells were grown for 24 h in culture medium prior to exposure or not to obtain the synthesized compounds. Stock solutions (10^−2 M in DMSO) of each compound were diluted in culture medium to obtain appropriate final concentrations.
(§2) • (a) MTT assay: The antiproliferative effect of all compounds was determined using MTT assay (a metabolic activity test). Briefly, cells were seeded in 96-well culture plates at 4 × 10^3 cells/well for HCT116, PC3, and DU145 cells and 6 × 10^3 cells/well for HT-29 cells (100 µL/well), and grown for 24 h in culture medium prior to exposure or not to obtain compounds 1–15 with concentrations ranging from 5 nM to 50 μM. After 24 and 48 h of treatment, MTT (5 mg/mL in PBS) was added and incubated for another 3 h. MTT was then removed from the wells before adding 100 μL/well of DMSO. The optical density was detected with a microplate reader (Multiskan FC, Thermoscientific, Bordeaux, France) at 550 nm and cell viability was expressed as a percentage of each treatment condition compared to control cells. IC50 values were calculated for all compounds from the dose–response curve. Data are expressed as the arithmetic means ± standard error of the mean (SEM) of separate experiments. All experiments were performed at least in triplicate. • (b) Trypan blue dye exclusion method: Cells were grown for 24 h then treated with compounds 10 and 13 at indicated concentrations. After 48 h of treatment, cells were trypsinized and resuspended in complete medium. Each sample was mixed with Trypan blue solution (0.14% in HBSS, Invitrogen-GIBCO, ThermoFisher, Illkirch, France). Colored (non-viable) and dye-excluding (viable) cells were counted with the LUNA-II automated cell Counter (Logos Biosystems; MC2, Aubière, France). The control was normalized to 100% including viable and dead cells. The results indicated on the histograms were expressed as the percentage of cells compared to the control. IC50 values were determined from the percentages of viable cells compared to the control.

[2] = tested on: HT-29; test: MTT assay, antiproliferative effect on HT-29; assay type: cell-based, human; conditions: Homo sapiens
Procedure: as §1, §2

[3] = tested on: DU145; test: Trypan blue dye exclusion method on DU145; assay type: cell-based, human
Procedure: as §1, §2

[4] = tested on: HCT116; test: MTT assay, antiproliferative effect on HCT116; assay type: cell-based; conditions: Homo sapiens
Procedure: as §1, §2

[5] = tested on: caspase-3 and PARP in DU145 cells; test: Western blot of apoptosis-related proteins in DU145; assay type: cell-based, human; conditions: DU145, 48 h;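 also: compared with untreated control cells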
Procedure: (§3) For total protein extraction, collected samples of each condition were washed in PBS. Then, the total cell pool was centrifuged at 200 g for 5 min at 4 °C and homogenized in RIPA lysis buffer (50 mM HEPES, pH 7.5, 150 mM NaCl, 1% sodium deoxycholate, 1% NP-40, 0.1% SDS, […] of aprotinin) containing protease inhibitors according to the manufacturer’s instructions. After quantification of protein levels using the Bradford method, proteins ([…]) were separated on 12.5% SDS-PAGE gels and transferred to PVDF membranes (GE Healthcare Life Science—Fisher Scientific). Membranes were probed with respective antibodies against human caspase-3, cleaved caspase-3, and PARP according to the manufacturer’s instructions. After incubation with appropriate secondary antibodies, blots were developed using the “ImmobilonWestern” substrate, following the manufacturer’s protocol, and G:BOX system (Syngene, Cambridge, UK). Membranes were then reblotted with human anti-β-actin used as a loading control.

[6] = tested on: caspase-3 and PARP in HT-29 cells; test: Western blot of apoptosis-related proteins in HT-29; assay type: cell-based, human; conditions: HT-29, 48 h;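 also: compared with untreated control cells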
Procedure: as §3

[7] = tested on: HT-29; test: Trypan blue dye exclusion method on HT-29; assay type: cell-based, human
Procedure: as §1, §2

[8] = tested on: PC3; test: MTT assay, antiproliferative effect on PC3; assay type: cell-based; conditions: Homo sapiens
Procedure: as §1, §2

[9] = tested on: caspase-3 and PARP in HCT116 cells; test: Western blot of apoptosis-related proteins in HCT116; assay type: cell-based, human; conditions: HCT116, 48 h;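 also: compared with untreated control cells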
Procedure: as §3

[10] = tested on: human CRC (HCT116 and HT-29) and human PCa (DU145 and PC3) cell lines; test: MTT assay, summary statements over the cell lines; assay type: cell-based
Procedure: as §1, §2

[11] = tested on: caspase-3 and PARP in PC3 cells; test: Western blot of apoptosis-related proteins in PC3; assay type: cell-based, human; conditions: PC3, 48 h;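 also: compared with untreated control cells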
Procedure: as §3

[12] = tested on: PC3; test: Trypan blue dye exclusion method on PC3; assay type: cell-based, human
Procedure: as §1, §2

IC50 ([1]; Homo sapiens, HCT-116, 48 h, from percentages of viable cells, read-out: IC50 Trypan Blue Test HCT116): 3.48 µM | IC50 ([2]; HT-29, 24 h, 24 h, read-out: IC50 HT-29 24 h): 3.88 ± 0.08 µM | IC50 ([2]; HT-29, 48 h, 48 h, read-out: IC50 HT-29 48 h): 3.1 ± 0.17 µM | IC50 ([3]; Homo sapiens, DU-145, 48 h, from percentages of viable cells, read-out: IC50 Trypan Blue Test DU145): 3.98 µM | IC50 ([4]; HCT-116, 24 h, read-out: IC50 HCT116 24 h): 2.86 ± 0.2 µM | IC50 ([4]; HCT-116, 48 h, read-out: IC50 HCT116 48 h): 2.59 ± 0.12 µM | IC50 ([7]; Homo sapiens, HT-29, 48 h, from percentages of viable cells, read-out: IC50 Trypan Blue Test HT-29): 4.05 µM | IC50 ([8]; PC-3, 24 h, read-out: IC50 PC3 24 h): 5.18 ± 0.39 µM | IC50 ([8]; PC-3, 48 h, read-out: IC50 PC3 48 h): 5.13 ± 0.25 µM | IC50 ([10]; Homo sapiens, 48 h, read-out: IC50 over the four cell lines): 2.6 to 5.1 µM | IC50 ([12]; Homo sapiens, PC-3, 48 h, from percentages of viable cells, read-out: IC50 Trypan Blue Test PC3): 5.33 µM
SMILES: COc1cc(C(=O)/C=C/c2coc3ccc(C)cc3c2=O)cc(OC)c1OC [chalcone 13, (E)-6-methyl-3-(3-oxo-3-(3,4,5-trimethoxyphenyl)prop-1-en-1-yl)-4H-chromen-4-one]
Dead cells ([1]; HCT116, 48 h, 2.5 µM): 5.46% | Dead cells ([1]; HCT116, 48 h, 5 µM): 11.11% | Dead cells ([1]; HCT116, 48 h, 7.5 µM): 10.46% | viability at 2.5 µM ([1]; Homo sapiens, HCT-116, HCT116, 48 h, 2.5 µM, read-out: Viable cells): 74.1% | viability at 5 µM ([1]; Homo sapiens, HCT-116, HCT116, 48 h, 5 µM, read-out: Viable cells): 19.6% | viability at 7.5 µM ([1]; Homo sapiens, HCT-116, HCT116, 48 h, 7.5 µM, read-out: Viable cells): 10.1% | Dead cells ([3]; DU145, 48 h, 2.5 µM): 3.24% | Dead cells ([3]; DU145, 48 h, 5 µM): 8.67% | Dead cells ([3]; DU145, 48 h, 7.5 µM): 6.49% | viability at 2.5 µM ([3]; Homo sapiens, DU-145, DU145, 48 h, 2.5 µM, read-out: Viable cells): 84.6% | viability at 5 µM ([3]; Homo sapiens, DU-145, DU145, 48 h, 5 µM, read-out: Viable cells): 29.3% | viability at 7.5 µM ([3]; Homo sapiens, DU-145, DU145, 48 h, 7.5 µM, read-out: Viable cells): 12.8% | PARP cleavage (89 kDa fragment) [5]: clearly observed | cleaved caspase-3 [5]: clearly observed | native PARP expression [5]: strong decreased expression | pro-caspase-3 expression [5]: decrease was less marked | PARP cleavage (89 kDa fragment) [6]: clearly observed | cleaved caspase-3 [6]: clearly observed | native PARP expression [6]: strong decreased expression | pro-caspase-3 expression [6]: decreased | Dead cells ([7]; HT-29, 48 h, 2.5 µM): 5.48% | Dead cells ([7]; HT-29, 48 h, 7.5 µM): 9.04% | viability at 2.5 µM ([7]; Homo sapiens, HT-29, 48 h, 2.5 µM, read-out: Viable cells): 72.2% | viability at 5 µM ([7]; Homo sapiens, HT-29, 48 h, 5 µM, read-out: Viable cells): 37.6% | viability at 7.5 µM ([7]; Homo sapiens, HT-29, 48 h, 7.5 µM, read-out: Viable cells): 18.5% | cleaved caspase-3 [9]: clearly observed | native PARP expression [9]: strong decreased expression | pro-caspase-3 expression [9]: decreased | viability at 10 µM ([10]; Homo sapiens, 48 h, from the concentration of 10 µM, whole cell lines): < 10% | activity relative to chalcone 12 ([10]; comparison of IC50 values): four times more active | PARP cleavage (89 kDa fragment) [11]: clearly observed | cleaved caspase-3 [11]: clearly observed | native PARP expression [11]: strong decreased expression | pro-caspase-3 expression [11]: decreased | viability at 2.5 µM ([12]; Homo sapiens, PC-3, PC3, 48 h, 2.5 µM, read-out: Viable cells): 92.8% | viability at 5 µM ([12]; Homo sapiens, PC-3, PC3, 48 h, 5 µM, read-out: Viable cells): 54.3% | viability at 7.5 µM ([12]; Homo sapiens, PC-3, PC3, 48 h, 7.5 µM, read-out: Viable cells): 15.4% | Dead cells ([12]; PC3, 48 h, 2.5 µM): 9.51% | Dead cells ([12]; PC3, 48 h, 5 µM): 6.14% | Dead cells ([12]; PC3, 48 h, 7.5 µM): 4.23%
